Test results published in ChEMBL document CHEMBL3286291, “Synthesis and biological evaluation of substituted 4,6-diarylpyrimidines and 3,5-diphenyl-4,5-dihydro-1H-pyrazoles as anti-tubercular agents” (Bioorg Med Chem Lett, 2014).

What was measured:
[1] = Selectivity index, ratio of CC50 for human THP1 cells to MIC for Mycobacterium tuberculosis H37Rv; type: toxicity, cell-based; conditions: THP-1 cells, read-out: Selectivity Index
[2] = system: Mycobacterium tuberculosis; assay: Antitubercular activity against Mycobacterium tuberculosis H37Rv by microplate alamar blue assay; type: functional
[3] = Cytotoxicity against human THP1 cells by MTT assay; type: cell-based; conditions: THP-1 cells

Row | Structure (SMILES) | selectivity ratio [1] | MIC [2] | CC50 [3]
1 | COc1cc(C2CC(c3ccc(Cl)cc3)=NN2C(C)=O)cc(OC)c1OC (stereo unspecified) | 8 | 12.5 µM | 100 µM
2 | COc1cc(C2CC(c3ccc(Br)cc3)=NN2C(C)=O)cc(OC)c1OC (stereo unspecified) | 8 | 12.5 µM | 100 µM
3 | COc1ccc(C2=NN(C(C)=O)C(c3cc(OC)c(OC)c(OC)c3)C2)cc1 (stereo unspecified) | 4 | 50 µM | 200 µM
4 | CC1=NN(C(=O)c2cc(-c3ccc(Cl)cc3)n[nH]2)C(=O)/C1=N/Nc1cccc(F)c1 |  | 0.35 µg/mL | 
5 | CCSc1nc(Cl)c(C#N)c(-c2ccc(F)cc2F)n1 |  | 0.78 µg/mL | 
6 | COc1ccc(-c2cc(-c3cc(OC)c(OC)c(OC)c3)nc(N)n2)cc1 | 4 | 25 µM | 100 µM
7 | COc1cc(-c2cc(-c3ccc(Br)cc3)nc(N)n2)cc(OC)c1OC |  | 50 µM | 100 µM
8 | COc1cc(-c2cc(-c3ccc(Cl)cc3)nc(N)n2)cc(OC)c1OC |  | 50 µM | 
9 | COc1cc(-c2cc(-c3ccc(F)cc3)nc(N)n2)cc(OC)c1OC |  | 50 µM | 
10 | COc1cc(-c2cc(-c3cc(OC)c(OC)c(OC)c3)nc(N)n2)cc(OC)c1OC |  | > 100 µM | 
11 | COc1cc(-c2cc(-c3ccc4c(c3)OCO4)nc(N)n2)cc(OC)c1OC |  | > 100 µM | 200 µM
12 | COc1ccc(-c2cc(-c3ccc4c(c3)OCO4)nc(N)n2)cc1 |  | > 100 µM | 
13 | COc1ccc(-c2cc(-c3cc(OC)c(OC)c(OC)c3)nc(-c3cccnc3)n2)cc1 |  | 100 µM | 200 µM
14 | COc1ccc(-c2cc(-c3cc(OC)c(OC)c(OC)c3)nc(-c3ccccn3)n2)cc1 |  | 25 µM | 50 µM
15 | COc1ccc(-c2cc(-c3cc(OC)c(OC)c(OC)c3)nc(-c3ccncc3)n2)cc1 |  | > 100 µM | 
16 | COc1cc(-c2cc(-c3cc(OC)c(OC)c(OC)c3)nc(-c3ccncc3)n2)cc(OC)c1OC |  | > 100 µM | 
17 | COc1cc(-c2cc(-c3ccc4c(c3)OCO4)nc(-c3ccncc3)n2)cc(OC)c1OC |  | > 100 µM | 400 µM
18 | COc1cc(C2=NN(C(C)=O)C(c3cc(OC)c(OC)c(OC)c3)C2)cc(OC)c1OC (stereo unspecified) |  | > 100 µM | 200 µM
19 | COc1cc(C2CC(c3ccc4c(c3)OCO4)=NN2C(C)=O)cc(OC)c1OC (stereo unspecified) |  | 100 µM | 200 µM
20 | COc1ccc(C2CC(c3ccc4c(c3)OCO4)=NN2C(C)=O)cc1 (stereo unspecified) |  | 100 µM | 200 µM
